“Also recorded” adds a separate entry of the source.
Key:
C57BL/6N mice [1] = assay: Acute scratching behavior, histamine-induced; assay type: in vivo, mouse; settings: 163 μg i.p., 10 minutes before 100 μg histamine into nape of neck; bouts per 30 minutes
Description: (§1) All experiments using mice followed NIH guidelines and were approved by the National Institute of Dental and Craniofacial Research ACUC. Behavioral assessment of scratching behavior was conducted as follows: 6-8-week old female C57BL/6N mice (Envigo) were injected intraperitoneally with JS-11 (163 μg) or DMSO (20%) as a vehicle control. Ten minutes later, 100 μg histamine diluted in 10 μl PBS or 8.9 μg CYM5442 diluted in 10 μl ddH2O was injected subcutaneously into the nape of the neck. Scratching behavior was recorded for 30 minutes and is presented in bouts per 30 minutes. One bout was defined as scratching behavior towards the injection site between lifting the hind leg from the ground and either putting it back on the ground or guarding the paw with the mouth. To control for motor impairment by JS-11, rota-rod performance was also assessed 10 minutes after intraperitoneal injection.

[2] = Rat liver microsome stability assay; assay type: in vitro ADME; settings: pH 7.4; rat liver microsomes
Description: Single time point microsomal stability was determined in a 96-well HTS format. Sample preparation was automated using an EVO 200 robot (Tecan, Switzerland). A high-resolution LC/MS (Thermo QExactive, ThermoFisher (Waltham, Mass.)) instrument was used to measure the percentage of compound remaining after incubation using a known method. Six standard controls were tested in each run: buspirone and propranolol (for short half-life), loperamide and diclofenac (for short to medium half-life), and carbamazepine and antipyrine (for long half-life). Briefly, the incubation consisted of 0.5 mg/mL microsomal protein, 1.0 μM compound concentration, and NADPH regeneration system (containing 0.650 mM NADP+, 1.65 mM glucose 6-phosphate, 1.65 mM MgCl2, and 0.2 U/mL G6PDH) in 100 mM phosphate buffer at pH 7.4. The incubation was carried out at 37° C. for 15 min. The reaction was quenched by adding 555 μL of acetonitrile (1:2 ratio) containing 0.28 μM albendazole (internal standard).

C57BL/6N mice [3] = assay: Acute scratching behavior, CYM5442-induced; assay type: in vivo, mouse; settings: 163 μg i.p., 10 minutes before 8.9 μg CYM5442 into nape of neck; bouts per 30 minutes
Description: as §1

C57BL/6N mice [4] = assay: Contact hypersensitivity (DNFB) model of chronic scratching; assay type: in vivo, mouse; settings: 163 μg i.p.
Description: The contact hypersensitivity model was performed as follows: the back of 6-8-week old female C57BL/6N mice (Envigo) was shaved with electric clippers. After 2 days, 25 μl of 0.5% (v/v) dinitro-fluoro-benzene (DNFB) diluted in a 4:1 mixture of acetone and olive oil was applied to the shaved back skin. Hapten challenge was performed 5 days after sensitization by applying 40 μl of 0.2% (v/v) DNFB in the same vehicle on the left ear and 40 μl of vehicle alone on the right ear. […] Mice were then injected intraperitoneally with JS-11 (163 μg) or DMSO (20%) as a vehicle control. After 10 minutes, scratching was again observed for 30 minutes. To assess skin inflammation, ear thickness was measured with a thickness gauge (Mitutoyo, Aurora, Ill.) before and 30 minutes after JS-11/DMSO injections and normalized to ear thickness before hapten challenge.

[5] = Parallel artificial membrane permeability assay (PAMPA); assay type: in vitro ADME; settings: pH 7.4
Description: Stirring double-sink PAMPA method was employed to determine the permeability of compounds via PAMPA. The PAMPA lipid membrane consisted of an artificial membrane of a proprietary lipid mixture and dodecane (Pion Inc., Billerica, Mass.), optimized to predict gastrointestinal tract passive permeability. The lipid was immobilized on a plastic matrix of a 96-well “donor” filter plate placed above a 96-well “acceptor” plate. pH 7.4 solution was used in both donor and acceptor wells. The test articles, stocked in 10 mM DMSO solutions, were diluted to 0.05 mM in aqueous buffer (pH 7.4), and the concentration of DMSO was 0.5% in the final solution. During the 30-minute permeation period at room temperature, the test samples in the donor compartment were stirred using the Gutbox technology (Pion Inc.) to reduce the aqueous boundary layer. The test article concentrations in the donor and acceptor compartments were measured using a UV plate reader (Nano Quant, Infinite® 200 PRO, Tecan). Permeability calculations were performed using Pion Inc. software and were expressed in units of 10-6 cm/s. Compounds with low or weak UV signal were analyzed using high resolution LC/MS (Thermo QExactive, Thermo Fisher).

[6] = Kinetic solubility assay (μSOL); assay type: physicochemical; settings: pH 7.4
Description: The μSOL assay was used for kinetic solubility determination, as described in Avdeef, et al., “Drug absorption in vitro model: filter-immobilized artificial membranes. 2. Studies of the permeability properties of lactones in Piper methysticum Forst,” Eur J Pharm Sci 14, 271-280 (2001), which is incorporated by reference herein. In this assay, the classical saturation shake-flask solubility method was adapted as described. Test compounds were prepared as 10 mM DMSO stock solutions and diluted to a final compound concentration of 150 μM in aqueous solution (pH 7.4, 100 mM phosphate buffer). Samples were incubated at room temperature for 6 hours and vacuum-filtered using Te-Vac (Tecan, Morrisville, N.C.) to remove any precipitates. The concentration of the compound in the filtrate was measured via UV absorbance (k 250-498 nm). The unknown compound concentration was determined by comparing the fully solubilized reference plate which contained 17 μM of compound dissolved in spectroscopically pure n-propanol. All compounds were tested in duplicates. The kinetic solubility (μg/mL) of compounds was calculated using the pSOL Evolution software (Pion Inc., Billerica, Mass.). The three controls used were albendazole (low solubility), phenazolpyridine (moderate solubility) and furosemide (high solubility).

## Cc1cc(CNC(=O)c2ccc3c(c2)n(CC2CC2)c(=O)n3C2CCCCC2)on1 [JS-11, 1-cyclohexyl-3-(cyclopropylmethyl)-N-((3-methylisoxazol-5-yl)methyl)-2-oxo-2,3-dihydro-1H-benzo[d]imidazole-5-carboxamide]
C57BL/6N mice [1]
  Scratching responses to histamine: reduced scratching responses to histamine by more than half; also recorded: significantly attenuated
[2]
  half-life at 1 μM: 12.4 min
C57BL/6N mice [3]
  Scratching responses to CYM5442: strongly attenuated itch response; also recorded: significantly attenuated
C57BL/6N mice [4]; measured before and 30 minutes after injection
  Skin inflammation (% ear thickness) after hapten challenge: had no effect on skin inflammation; also recorded: no differences in % ear thickness were detectable
C57BL/6N mice [4]; scratching observed 30 minutes, from 10 minutes after injection
  Hapten-induced scratching responses: attenuated hapten-induced scratching responses by about a half; also recorded: significantly reduced
[5]
  Papp at 30 min, 0.05 mM: 74 nm/s
[6]
  water solubility: relatively high-water solubility

Reference: patent US11324725B2, “Compositions and methods for the inhibition of pruritus” (The United States of America, as represented by the …, priority 2017, dated 2022)
